How the values were obtained:
Sandhoff mice = conditions: Aspirin combined with substrate reduction therapy; cited from earlier work
[1] = Dynamic vapour sorption (DVS); type: physicochemical; conditions: high relative humidity
Description: In addition, the behaviour of the sample of the Form 3 crystalline form of compound of formula (I) obtained by equilibration with ethyl acetate was investigated under variable water vapour pressures (DVS measurement). At the highest relative humidity of 95% the sample absorbed about 1.2% of water that was released when the relative humidity was returned to the 50% RH. The amount of absorbed water is small, and the water sorption is reversible. […] For Form 2, at high relative humidity the sample absorbed about 18% of water; however, most of the absorbed water was released when the relative humidity was returned to the 50% RH.
Dynamic vapour sorption (DVS) measurements were performed with an SPS11-100n “Sorptions Prufsystem” from ProUmid (formerly “Projekt Messtechnik”), August-Nagel-Str. 23, 89079 Ulm (Germany). About 5 mg to 20 mg of sample was put into an aluminum sample pan. Humidity change rates of 5% per hour were used.

[2] = system: Sandhoff mouse model (Hexb (−/−)); assay: Survival study in Sandhoff mouse model; type: in vivo; conditions: Hexb (−/−) mice, treated vs vehicle/untreated
Description: (strain: B6; 129S4-Hexbtm1Rlp/J). The mouse line was maintained by crossing homozygous −/− males with heterozygous females (generating litters with 50%−/− and 50%+/−) under specific pathogen-free conditions. All mice were housed in individual, ventilated cages (IVCs) with 12-h light/dark cycles with food and water ad libitum. Young-adult mice of the same genetic C57BL/6 background were from Jackson Laboratories. Breeding of Hexb mutants will target needs of the “Long-term” cohorts first, followed by the “16-week” biomarker study.
Cohort 1: There were a total of 6 dose groups and 2 vehicle groups using both Hexb+/− and Hexb−/− animals. […] Dosing occurred daily from day 30 to day 170, unless the animal was prematurely euthanized per protocol.
A subsequent study to explore lower doses was also performed (in the same manner as in Example 2) in which doses of 0.02, 0.06, 0.2 and 0.5 mg/kg/day were used. […] It is unclear why the 0.06 mg/kg/day had less survival as formulations were checked and confirmed accurate dosing (internal data).

Structure (SMILES): CC(=O)Oc1ccccc1C(=O)O [Aspirin]
- maximum improvement of survival (Sandhoff mice): 73%
- synergy, improvement in survival (Sandhoff mice): 11%

Structure (SMILES): OC[C@H]1[C@@H](O)[C@H](O)[C@@H](O)CN1CCCCCOCc1ccc(-c2ccccc2)c(F)c1 [Form 2]
- water absorbed (DVS) [1]: about 18%

Structure (SMILES): OC[C@H]1[C@@H](O)[C@H](O)[C@@H](O)CN1CCCCCOCc1ccc(-c2ccccc2)c(F)c1 [compound of formula (I)]
- increase in survival / life expectancy [2]: at least 22%

— US20250120958A1, “Treatment of GM2 Gangliosidosis” (Azafaros B.V., priority 2022, published 2025)
